# Assay results: the supplement of paper PMC12463676, “Small-molecule dissolution of stress granules by redox modulation benefits ALS models” (Nature Chemical Biology, 2025)
# What was measured:
# [1] = compound: NC(=O)CCCCC1CCSS1 [lipoamide]; assay: thermal stability z-score vs DMSO; higher = more thermally stabilized by treatment; conditions: HeLa, lipoamide concentration 100 µM
# Protocol: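 Cellular thermal proteome profiling in HeLa cells. Cells were treated with 100 µM lipoamide for 1 h, with or without 1 mM arsenate for a further 1 h, then heated to ten temperatures (37-66.3 °C), and soluble protein was quantified by TMT mass spectrometry relative to 0.1% DMSO controls. The thermal stability score (sum of log2 fold changes minus the abundance score) was transformed to a z-score; mean of n = 3 experiments.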
# [2] = compound: O=[As]([O-])(O)O.[K+] [potassium arsenate]; assay: as above; conditions: HeLa; arsenate concentration 1 mM
# Protocol: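 Cellular thermal proteome profiling in HeLa cells treated with 1 mM arsenate for 1 h (DMSO pretreatment), heated to ten temperatures (37-66.3 °C). Soluble protein was quantified by TMT mass spectrometry relative to DMSO controls; the thermal stability score was transformed to a z-score; mean of n = 3 experiments.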
# [3] = arsenate co-treatment: 1 mM arsenate 1 h
# 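Note: each temperature applied for 3 min, abundance score taken as mean log2 fold change at the two lowest temperatures, z-score obtained by mean subtraction and division by SD.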
# Chain of UniProt Q16222 (Q16222 whole entry): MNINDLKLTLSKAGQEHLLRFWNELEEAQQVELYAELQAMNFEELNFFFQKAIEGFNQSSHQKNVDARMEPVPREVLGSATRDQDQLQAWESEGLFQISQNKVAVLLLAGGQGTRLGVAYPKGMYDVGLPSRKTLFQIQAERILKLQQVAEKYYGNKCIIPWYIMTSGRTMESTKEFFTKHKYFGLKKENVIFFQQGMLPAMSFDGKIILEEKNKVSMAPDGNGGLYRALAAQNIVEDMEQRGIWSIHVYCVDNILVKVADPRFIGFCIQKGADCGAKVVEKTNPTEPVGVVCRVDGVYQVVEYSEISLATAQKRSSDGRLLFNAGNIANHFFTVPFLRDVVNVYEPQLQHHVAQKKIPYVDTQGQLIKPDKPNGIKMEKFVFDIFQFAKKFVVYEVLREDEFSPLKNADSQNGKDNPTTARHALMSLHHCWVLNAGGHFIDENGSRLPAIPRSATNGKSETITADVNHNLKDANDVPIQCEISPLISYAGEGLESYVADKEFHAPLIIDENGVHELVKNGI
# Chain of UniProt P20749 (P20749 whole entry): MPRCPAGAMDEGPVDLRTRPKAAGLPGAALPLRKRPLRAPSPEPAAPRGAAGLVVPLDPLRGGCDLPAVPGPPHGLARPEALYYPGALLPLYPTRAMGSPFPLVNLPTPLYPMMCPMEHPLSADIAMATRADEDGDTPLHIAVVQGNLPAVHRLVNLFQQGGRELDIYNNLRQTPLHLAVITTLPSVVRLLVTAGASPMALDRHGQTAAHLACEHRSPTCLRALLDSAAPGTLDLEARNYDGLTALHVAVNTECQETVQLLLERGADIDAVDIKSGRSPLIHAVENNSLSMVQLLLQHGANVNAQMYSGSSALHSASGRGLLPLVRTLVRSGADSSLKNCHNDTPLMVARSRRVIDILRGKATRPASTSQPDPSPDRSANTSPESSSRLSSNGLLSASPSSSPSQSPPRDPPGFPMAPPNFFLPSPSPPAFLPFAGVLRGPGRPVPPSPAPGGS
# Chain of UniProt Q9NVJ2 (Q9NVJ2 whole entry): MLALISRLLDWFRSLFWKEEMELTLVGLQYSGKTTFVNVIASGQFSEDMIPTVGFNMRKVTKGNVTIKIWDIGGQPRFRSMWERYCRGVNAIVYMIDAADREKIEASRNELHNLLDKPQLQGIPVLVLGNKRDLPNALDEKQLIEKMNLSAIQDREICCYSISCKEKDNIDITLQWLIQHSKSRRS
# Chain of UniProt P47756 (P47756 whole entry): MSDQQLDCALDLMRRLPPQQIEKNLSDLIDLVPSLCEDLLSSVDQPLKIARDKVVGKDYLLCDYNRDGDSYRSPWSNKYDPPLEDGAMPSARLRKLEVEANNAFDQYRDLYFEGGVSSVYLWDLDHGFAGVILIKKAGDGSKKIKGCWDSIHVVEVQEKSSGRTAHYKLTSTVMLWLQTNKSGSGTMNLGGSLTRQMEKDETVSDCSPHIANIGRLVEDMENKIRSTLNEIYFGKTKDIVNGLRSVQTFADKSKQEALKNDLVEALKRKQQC
# Chain of UniProt Q96G01 (Q96G01 whole entry): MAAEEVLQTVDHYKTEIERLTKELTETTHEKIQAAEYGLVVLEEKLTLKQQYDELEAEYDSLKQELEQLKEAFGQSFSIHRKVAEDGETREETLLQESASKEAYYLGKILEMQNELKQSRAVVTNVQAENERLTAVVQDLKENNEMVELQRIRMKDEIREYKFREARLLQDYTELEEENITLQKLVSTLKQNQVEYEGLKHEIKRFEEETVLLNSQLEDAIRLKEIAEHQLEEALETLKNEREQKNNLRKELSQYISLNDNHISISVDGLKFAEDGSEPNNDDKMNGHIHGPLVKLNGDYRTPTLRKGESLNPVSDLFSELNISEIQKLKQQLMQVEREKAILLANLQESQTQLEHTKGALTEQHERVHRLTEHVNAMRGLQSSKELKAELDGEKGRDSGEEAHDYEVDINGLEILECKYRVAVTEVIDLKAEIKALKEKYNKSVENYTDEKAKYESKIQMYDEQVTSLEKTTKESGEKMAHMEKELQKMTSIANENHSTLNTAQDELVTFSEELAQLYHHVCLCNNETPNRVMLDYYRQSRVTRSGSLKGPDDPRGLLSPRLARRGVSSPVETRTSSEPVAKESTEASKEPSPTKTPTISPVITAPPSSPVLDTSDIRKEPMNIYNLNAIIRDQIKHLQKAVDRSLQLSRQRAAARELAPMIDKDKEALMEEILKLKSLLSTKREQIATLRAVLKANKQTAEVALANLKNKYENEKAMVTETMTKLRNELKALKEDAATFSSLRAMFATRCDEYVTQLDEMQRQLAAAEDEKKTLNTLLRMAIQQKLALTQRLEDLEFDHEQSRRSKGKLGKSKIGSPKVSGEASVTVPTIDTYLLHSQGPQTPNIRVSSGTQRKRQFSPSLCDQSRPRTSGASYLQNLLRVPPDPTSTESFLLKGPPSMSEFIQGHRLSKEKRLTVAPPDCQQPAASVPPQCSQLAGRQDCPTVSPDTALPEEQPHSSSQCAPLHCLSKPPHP
# Chain of UniProt P35241 (P35241 whole entry): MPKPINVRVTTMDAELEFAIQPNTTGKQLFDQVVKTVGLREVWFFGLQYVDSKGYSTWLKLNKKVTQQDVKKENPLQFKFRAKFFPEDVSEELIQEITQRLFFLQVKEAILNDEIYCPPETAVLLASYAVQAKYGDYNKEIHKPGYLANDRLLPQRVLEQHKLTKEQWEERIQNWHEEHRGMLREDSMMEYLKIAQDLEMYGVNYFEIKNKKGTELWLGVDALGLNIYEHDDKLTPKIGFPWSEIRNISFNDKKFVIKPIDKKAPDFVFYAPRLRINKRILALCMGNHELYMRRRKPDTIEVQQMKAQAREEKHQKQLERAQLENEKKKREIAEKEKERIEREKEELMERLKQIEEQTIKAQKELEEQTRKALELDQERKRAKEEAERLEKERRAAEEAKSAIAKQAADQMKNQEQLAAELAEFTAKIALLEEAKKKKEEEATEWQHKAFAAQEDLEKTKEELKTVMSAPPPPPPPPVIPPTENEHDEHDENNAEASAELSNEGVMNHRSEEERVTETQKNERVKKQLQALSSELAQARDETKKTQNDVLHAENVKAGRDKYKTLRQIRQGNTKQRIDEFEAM
# Chain of UniProt P22570 (P22570 whole entry): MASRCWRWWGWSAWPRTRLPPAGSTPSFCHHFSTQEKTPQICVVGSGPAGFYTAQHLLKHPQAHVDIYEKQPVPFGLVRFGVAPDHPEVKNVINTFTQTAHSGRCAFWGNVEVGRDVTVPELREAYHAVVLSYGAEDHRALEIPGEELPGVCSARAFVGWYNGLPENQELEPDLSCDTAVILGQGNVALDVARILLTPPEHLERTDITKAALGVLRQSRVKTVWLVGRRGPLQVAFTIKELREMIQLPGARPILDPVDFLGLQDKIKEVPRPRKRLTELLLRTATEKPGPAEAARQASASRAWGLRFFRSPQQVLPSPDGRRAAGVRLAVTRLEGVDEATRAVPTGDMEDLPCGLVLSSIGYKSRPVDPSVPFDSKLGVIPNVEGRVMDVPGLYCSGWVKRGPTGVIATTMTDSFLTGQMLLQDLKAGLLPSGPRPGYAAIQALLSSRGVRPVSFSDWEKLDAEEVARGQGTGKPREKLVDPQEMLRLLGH
# Chain of UniProt Q9P2D0 (Q9P2D0 whole entry): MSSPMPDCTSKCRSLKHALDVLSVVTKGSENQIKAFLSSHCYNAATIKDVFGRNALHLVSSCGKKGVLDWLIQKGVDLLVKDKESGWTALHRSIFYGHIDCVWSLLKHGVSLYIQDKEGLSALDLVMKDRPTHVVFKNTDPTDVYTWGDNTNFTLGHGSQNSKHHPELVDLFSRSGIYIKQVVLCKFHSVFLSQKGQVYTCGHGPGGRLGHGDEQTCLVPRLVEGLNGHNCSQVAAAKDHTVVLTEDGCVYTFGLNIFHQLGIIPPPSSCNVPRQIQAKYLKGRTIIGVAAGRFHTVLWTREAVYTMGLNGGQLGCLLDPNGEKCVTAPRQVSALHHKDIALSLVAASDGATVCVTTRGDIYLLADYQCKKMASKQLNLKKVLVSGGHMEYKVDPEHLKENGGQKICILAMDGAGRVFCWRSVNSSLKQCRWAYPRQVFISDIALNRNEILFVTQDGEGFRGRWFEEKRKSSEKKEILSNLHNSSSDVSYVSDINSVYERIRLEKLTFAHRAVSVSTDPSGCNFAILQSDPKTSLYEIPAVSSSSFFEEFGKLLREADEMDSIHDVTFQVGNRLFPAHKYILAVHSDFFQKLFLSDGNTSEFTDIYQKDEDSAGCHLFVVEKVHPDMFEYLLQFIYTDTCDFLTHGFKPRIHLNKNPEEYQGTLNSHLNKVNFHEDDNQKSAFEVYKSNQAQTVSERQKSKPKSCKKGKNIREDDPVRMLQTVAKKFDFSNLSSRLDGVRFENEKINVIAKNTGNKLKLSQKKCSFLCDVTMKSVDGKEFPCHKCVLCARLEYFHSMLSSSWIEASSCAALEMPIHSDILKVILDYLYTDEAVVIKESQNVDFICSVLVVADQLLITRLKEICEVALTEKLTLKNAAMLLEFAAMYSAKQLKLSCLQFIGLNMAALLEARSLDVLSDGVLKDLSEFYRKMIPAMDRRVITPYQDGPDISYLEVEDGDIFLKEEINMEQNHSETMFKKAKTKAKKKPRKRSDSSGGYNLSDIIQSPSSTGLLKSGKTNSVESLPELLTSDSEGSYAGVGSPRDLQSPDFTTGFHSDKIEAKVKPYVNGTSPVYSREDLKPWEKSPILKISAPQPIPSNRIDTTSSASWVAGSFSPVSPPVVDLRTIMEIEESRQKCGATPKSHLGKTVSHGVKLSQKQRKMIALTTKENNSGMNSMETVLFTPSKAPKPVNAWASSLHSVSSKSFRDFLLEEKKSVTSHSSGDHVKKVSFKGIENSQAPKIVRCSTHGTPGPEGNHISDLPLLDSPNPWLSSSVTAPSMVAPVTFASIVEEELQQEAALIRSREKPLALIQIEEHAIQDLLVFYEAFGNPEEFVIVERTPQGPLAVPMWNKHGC
# Chain of UniProt P61088 (P61088 whole entry): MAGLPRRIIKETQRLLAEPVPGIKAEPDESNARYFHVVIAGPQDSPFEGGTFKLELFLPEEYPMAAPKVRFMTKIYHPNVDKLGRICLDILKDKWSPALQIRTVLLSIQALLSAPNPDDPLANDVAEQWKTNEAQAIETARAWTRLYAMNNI
Target,"thermal stability z-score [1, 3]",thermal stability z-score ([1]; arsenate co-treatment: none),thermal stability z-score [2]
PRPF39 (UniProt Q86UA1),-0.0835,-0.137,-0.0696
NDC1 (UniProt Q9BTX1),0.0748,0.0634,0.177
STAT5A (UniProt P42229),-0.0259,0.314,0.0163
DENR (UniProt O43583),0.109,-0.188,-0.702
DNAJC6 (UniProt O75061),0.617,0.625,0.413
ACOT8 (UniProt O14734),0.492,0.113,0.0313
DUS2 (UniProt Q9NX74),-0.517,0.0964,-0.452
SRGAP1 (UniProt Q7Z6B7),-0.0604,-0.163,-0.0461
TOP1 (UniProt P11387),0.0566,0.449,-0.734
MACROD1 (UniProt Q9BQ69),1.61,0.262,1.33
CAPZB (UniProt P47756),-0.059,0.144,0.454
REPS1 (UniProt Q96D71),-0.864,-0.26,0.157
ARL8B (UniProt Q9NVJ2),-0.122,-0.507,-0.267
CALR (UniProt P27797),-4.25,-3.48,0.147
UBE2N (UniProt P61088),-0.524,-0.293,-0.899
UAP1 (UniProt Q16222),0.373,0.0722,-0.553

Target,"thermal stability z-score [1, 3]",thermal stability z-score ([1]; arsenate co-treatment: none),thermal stability z-score [2]
BICD1 (UniProt Q96G01),-1.17,-1.22,-1.74
EEF1D (UniProt P29692),0.303,0.257,-0.0726
PPP2R5C (UniProt Q13362),1.38,0.649,-0.0211
FKBP3 (UniProt Q00688),0.676,0.552,-0.406
RAP1A (UniProt P62834),0.141,-0.173,-0.254
RDX (UniProt P35241),0.749,0.45,0.883
IK (UniProt Q13123),1.25,0.908,1.75
IBTK (UniProt Q9P2D0),-0.734,-0.319,-0.576
RPL26 (UniProt P61254),1.18,0.347,-0.347
DCAF12 (UniProt Q5T6F0),0.118,0.0205,0.154
BUB3 (UniProt O43684),-0.0475,-0.134,-0.833
ULK3 (UniProt Q6PHR2),-0.27,-0.197,-0.285
AGRN (UniProt O00468),-0.718,-1.6,0.582
BCL3 (UniProt P20749),-0.234,0.114,-0.0259
FDXR (UniProt P22570),-0.331,-0.428,0.404
